Laboratory results published in US20150025236A1, “PROCESS FOR THE PREPARATION OF STABLE CRYSTALLINE FORM-I OF LINEZOLID, SUBSTANTIALLY FREE OF RESIDUAL SOLVENT” (Jubilant Life Sciences Limited, priority 2012, published 2015).

Test: Stability study: determination of linezolid Form-II content in linezolid Form-I (polymorph status by XRD)

SMILES: CC(=O)NC[C@H]1CN(c2ccc(N3CCOCC3)c(F)c2)C(=O)O1 [Linezolid Form-I, (S)—N-[[3-(3-fluoro-4-morpholinylphenyl)-2-oxo-5-oxazolidinyl]methyl]acetamide]
- Polymorphic stability (formation of polymorphic impurity Form-II) (containing residual solvent(s), though complying with the regulatory norms): undergoes transformation into Form II
- Time stable during stability study (different conditions of relative humidity (RH) and temperature (Table-1)): up to 12 months
- Polymorphic stability (formation of polymorphic impurity Form-II) (substantially free of solvent(s)): does not generate polymorphic impurity, Form-II
